This note sets out measurements from ChEMBL document CHEMBL3352039, “Semisynthesis of triptolide analogues: effect of B-ring substituents on cytotoxic activities” (Bioorg Med Chem Lett, 2014).

As usually defined, the IC50 is the concentration that inhibits the measured activity by half.

Experiment [1] relates to U-251. The experiment can be described thus: Cytotoxicity against human U251 cells assessed as inhibition of cell proliferation by sulforhodamine B assay. In kind it is functional, cell-based. Background: Sulforhodamine B stains cellular protein and so reports cell mass.
Experiment [2] is described as follows: Cytotoxicity against human PC3 cells assessed as inhibition of cell proliferation by sulforhodamine B assay. The conditions noted are these: PC-3. It counts as functional, cell-based.

Structures are written as SMILES. A value given as a limit tells only on which side of the number the result lay.

Turning to `CC(C)[C@]12O[C@H]1[C@@H]1O[C@]13[C@]1(O[C@H]1C[C@@]1(O)C4=C(CC[C@]31C)C(=O)OC4)[C@@H]2O`, the values for the IC50 in experiment [1] and in experiment [2] were 488 nM and 275 nM, respectively.
In the same order, the values of `CC(C)[C@]12O[C@H]1[C@@H]1O[C@]13[C@]1(O[C@H]1C[C@@]1(Br)C4=C(CC[C@]31C)C(=O)OC4)[C@@H]2O` are 796 nM and 333 nM.
On the same counts, the results for `CC(C)[C@]12O[C@H]1[C@@H]1O[C@@]13[C@@]1(C)CCC4=C(COC4=O)[C@]1(O)C[C@@H]1O[C@@]13C2=O` are 1030 nM and 377 nM.
On the same counts, the results for `CC(C)[C@]12O[C@H]1[C@@H]1O[C@@]13[C@@]1(C)CCC4=C(COC4=O)[C@]1(F)C[C@@H]1O[C@@]13C2=O` are 429 nM and 223 nM.
`CC(C)[C@]12O[C@H]1[C@@H]1O[C@@]13[C@@]1(C)CCC4=C(COC4=O)[C@]1(Cl)C[C@@H]1O[C@@]13C2=O`: the IC50 stood at 170 nM in experiment [1] and 85 nM in experiment [2].
`CC(C)[C@]12O[C@H]1[C@@H]1O[C@@]13[C@@]1(C)CCC4=C(COC4=O)[C@]1(Br)C[C@@H]1O[C@@]13C2=O`: the IC50 in experiment [1] was found to be 558 nM; in experiment [2] it was 104 nM.
`CC(C)[C@]12O[C@H]1[C@@H]1O[C@@]13[C@@]1(C)CCC4=C(COC4=O)[C@]1(Cl)C[C@@H]1O[C@@]13[C@]21CO1`: the half-inhibitory concentration (IC50) in experiment [1] amounted to 925 nM; in experiment [2], 871 nM.
For `CC(C)[C@]12O[C@H]1[C@@H]1O[C@@]13[C@@]1(C)CCC4=C(COC4=O)[C@]1(Br)C[C@@H]1O[C@@]13[C@]21CO1`, the IC50 turned out to be 2040 nM in experiment [1] and 893 nM in experiment [2].
As for `CC(C)[C@]12O[C@H]1[C@@H]1O[C@@]13[C@@]1(C)CCC4=C(COC4=O)C1=C[C@@H]1O[C@@]13C2=O`, the IC50 came to 1630 nM in experiment [1] and 171 nM in experiment [2].
In the case of `CC(C)[C@]12O[C@H]1[C@@H]1O[C@]13[C@]1(O[C@H]1C=C1C4=C(CC[C@@]13C)C(=O)OC4)[C@@H]2O`, the values for the IC50 in experiment [1] and in experiment [2] were 718 nM and 126 nM, respectively.
With `CC(C)[C@]12O[C@H]1[C@@H]1O[C@]13[C@]1(O[C@H]1C=C1C4=C(CC[C@@]13C)C(=O)OC4)[C@H]2O`, the IC50 in experiment [1] was found to be 5040 nM; in experiment [2], 3220 nM.
On the same counts, the results for `CC(C)[C@]12O[C@H]1[C@@H]1O[C@@]13[C@@]1(C)CCC4=C(COC4=O)[C@@]14O[C@H]4[C@@H]1O[C@@]13C2=O` are 197 nM and 4050 nM.
In the same order, the values of `CC(C)[C@]12O[C@H]1[C@@H]1O[C@@]13[C@@]1(C)CCC4=C(COC4=O)[C@@]1(O)[C@@H](O)[C@@H]1O[C@@]13C2=O` are 9860 nM and 5040 nM.
As to `CC(C)[C@]12O[C@H]1[C@@H]1O[C@@]13[C@@]1(C)CCC4=C(COC4=O)[C@]1(O)[C@@H](O)[C@@H]1O[C@@]13C2=O`, the half-maximal inhibitory concentration (IC50) in experiment [1] was 2970 nM; in experiment [2], 2270 nM.
With `CC(C)[C@]12O[C@H]1[C@@H]1O[C@]13[C@]1(O[C@H]1[C@H](O)[C@@]1(O)C4=C(CC[C@]31C)C(=O)OC4)[C@@H]2O`, the IC50 amounted to 1580 nM in experiment [1] and 589 nM in experiment [2].
In the case of `CC(C)[C@]12O[C@H]1[C@@H]1O[C@]13[C@]1(O[C@H]1[C@H](O)[C@@]1(O)C4=C(CC[C@]31C)C(=O)OC4)[C@H]2O`, the half-inhibitory concentration (IC50) in experiment [1] and in experiment [2] was more than 10000 nM in each case.
For the compound `CC(C)[C@]12O[C@H]1[C@@H]1O[C@]13C(=CC[C@H]1C4=C(CC[C@@]13C)C(=O)OC4)[C@@H]2O`, the IC50 in experiment [1] and in experiment [2] was more than 10000 nM throughout.
Turning to `CC(C)[C@]12O[C@H]1[C@@H]1O[C@]13[C@@]1(O[C@@H]1C[C@H]1C4=C(CC[C@@]13C)C(=O)OC4)[C@@H]2O`, the IC50 in experiment [1] and in experiment [2] was more than 10000 nM in each case.
With `CC(C)[C@]12O[C@H]1[C@@H]1O[C@@]13[C@@]1(C)CCC4=C(COC4=O)[C@]1(O)C[C@@H]1O[C@@]13[C@]21CO1`, the concentration for half-maximal inhibition (IC50) came to 5470 nM in experiment [1] and 2610 nM in experiment [2].
As to `CC(C)[C@]12O[C@H]1[C@@H]1O[C@]13[C@]1(O[C@H]1C[C@H]1C4=C(CC[C@@]13C)C(=O)OC4)[C@@H]2O` [TRIPTOLIDE], the IC50 in experiment [1] amounted to 33 nM; in experiment [2], 20 nM.
For `CC(C)[C@]12O[C@H]1[C@@H]1O[C@@]13[C@@]1(C)CCC4=C(COC4=O)[C@@H]1C[C@@H]1O[C@@]13C2=O` [TRIPTONIDE], the concentration for half-maximal inhibition (IC50) in experiment [1] was found to be 31 nM; in experiment [2], 26 nM.
